According to article PMC10108266, “Pharmacokinetic characteristics of golidocitinib, a highly selective JAK1 inhibitor, in healthy adult participants” (Frontiers in Immunology, 2023):

Columns and labels:
Safety (TEAEs), JACKPOT3 = type: in vivo, human; conditions: n = 6
Text: The safety monitoring for both JACKPOT2 and JACKPOT3 was similar, included monitoring of adverse events/serious adverse events, clinical safety laboratory tests (clinical chemistry, hematology, coagulation, and urinalysis tests), 12-lead ECG, vital signs (blood pressure, pulse rate, and respiratory rate), and pulmonary function.

JAK1 = system: JAK1; design: method as in PMID 32297743; conditions: ref [9]; cited from earlier work

In the case of `COc1nn(C)cc1Nc1nccc(-c2c[nH]c3c(NC(=O)[C@@H](C)N4CCN(C)CC4)cccc23)n1` [golidocitinib, (2R)-N-[3-[2-[(3-Methoxy-1-methyl-pyrazol-4-yl)amino]pyrimidin-4-yl]-1H-indol-7-yl]-2-(4-methylpiperazin-1-yl)propenamide], the ALT Increased (Safety (TEAEs), JACKPOT3; 25 mg) is reported as 0 n (%), the AST Increased (Safety (TEAEs), JACKPOT3; 25 mg) is reported as 0 n (%) and the Abdominal discomfort (Safety (TEAEs), JACKPOT3; 25 mg) is reported as 1 (16.7%) n (%). The “Blood and Lymphatic System Disorders” value (Safety (TEAEs), JACKPOT3; 25 mg) was 1 (16.7%) n (%), the Blood bilirubin increased (Safety (TEAEs), JACKPOT3; 25 mg) was 0 n (%) and the Blood cholesterol increased (Safety (TEAEs), JACKPOT3; 25 mg) was 0 n (%). The C-reactive protein increased (Safety (TEAEs), JACKPOT3; 25 mg) was 1 (16.7%) n (%), the Diarrhea (Safety (TEAEs), JACKPOT3; 25 mg) was 1 (16.7%) n (%) and the “ECG QT prolonged” value (Safety (TEAEs), JACKPOT3; 25 mg) was 0 n (%). For the same compound, the Epistaxis (Safety (TEAEs), JACKPOT3; 25 mg) was 0 n (%), the Gastrointestinal disorders (Safety (TEAEs), JACKPOT3; 25 mg) was 2 (33.3%) n (%) and the Glucose urine present (Safety (TEAEs), JACKPOT3; 25 mg) was 0 n (%). The Hemoglobin decreased (Safety (TEAEs), JACKPOT3; 25 mg) was 0 n (%), the Hypertriglyceridemia (Safety (TEAEs), JACKPOT3; 25 mg) was 0 n (%) and the “Injury, poisoning and procedural complications” value (Safety (TEAEs), JACKPOT3; 25 mg) was 1 (16.7%) n (%). For the same compound, the Investigations (Safety (TEAEs), JACKPOT3; 25 mg) was 2 (33.3%) n (%), the LDH increased (Safety (TEAEs), JACKPOT3; 25 mg) was 0 n (%) and the LDL increased (Safety (TEAEs), JACKPOT3; 25 mg) was 0 n (%). The Leukocytosis (Safety (TEAEs), JACKPOT3; 25 mg) was 1 (16.7%) n (%), the Limb injury (Safety (TEAEs), JACKPOT3; 25 mg) was 1 (16.7%) n (%) and the “Metabolism and nutrition disorders” value (Safety (TEAEs), JACKPOT3; 25 mg) was 0 n (%). For the same compound, the “Musculoskeletal and connective tissue disorders” value (Safety (TEAEs), JACKPOT3; 25 mg) was 0 n (%), the Musculoskeletal pain (Safety (TEAEs), JACKPOT3; 25 mg) was 0 n (%) and the Musculoskeletal stiffness (Safety (TEAEs), JACKPOT3; 25 mg) was 0 n (%). For the same compound, the Neutrophil count decreased (Safety (TEAEs), JACKPOT3; 25 mg) was 1 (16.7%) n (%), the Productive cough (Safety (TEAEs), JACKPOT3; 25 mg) was 1 (16.7%) n (%) and the “Respiratory, Thoracic and Mediastinal Disorders” value (Safety (TEAEs), JACKPOT3; 25 mg) was 1 (16.7%) n (%). The Rhinorrhea (Safety (TEAEs), JACKPOT3; 25 mg) was 0 n (%), the “Subjects with at least one TEAE” value (Safety (TEAEs), JACKPOT3; 25 mg) was 4 (66.7%) n (%) and the Wound (Safety (TEAEs), JACKPOT3; 25 mg) was 0 n (%). The ALT Increased (Safety (TEAEs), JACKPOT3; 50 mg) was 1 (16.7%) n (%), the AST Increased (Safety (TEAEs), JACKPOT3; 50 mg) was 2 (33.3%) n (%) and the Abdominal discomfort (Safety (TEAEs), JACKPOT3; 50 mg) was 0 n (%). The “Blood and Lymphatic System Disorders” value (Safety (TEAEs), JACKPOT3; 50 mg) was 0 n (%), the Blood bilirubin increased (Safety (TEAEs), JACKPOT3; 50 mg) was 1 (16.7%) n (%) and the Blood cholesterol increased (Safety (TEAEs), JACKPOT3; 50 mg) was 0 n (%). The C-reactive protein increased (Safety (TEAEs), JACKPOT3; 50 mg) was 0 n (%), the Diarrhea (Safety (TEAEs), JACKPOT3; 50 mg) was 0 n (%) and the “ECG QT prolonged” value (Safety (TEAEs), JACKPOT3; 50 mg) was 0 n (%). The Epistaxis (Safety (TEAEs), JACKPOT3; 50 mg) was 0 n (%), the Gastrointestinal disorders (Safety (TEAEs), JACKPOT3; 50 mg) was 0 n (%) and the Glucose urine present (Safety (TEAEs), JACKPOT3; 50 mg) was 0 n (%). For the same compound, the Hemoglobin decreased (Safety (TEAEs), JACKPOT3; 50 mg) was 0 n (%), the Hypertriglyceridemia (Safety (TEAEs), JACKPOT3; 50 mg) was 1 (16.7%) n (%) and the “Injury, poisoning and procedural complications” value (Safety (TEAEs), JACKPOT3; 50 mg) was 0 n (%). The Investigations (Safety (TEAEs), JACKPOT3; 50 mg) was 3 (50.0%) n (%), the LDH increased (Safety (TEAEs), JACKPOT3; 50 mg) was 1 (16.7%) n (%) and the LDL increased (Safety (TEAEs), JACKPOT3; 50 mg) was 1 (16.7%) n (%). The Leukocytosis (Safety (TEAEs), JACKPOT3; 50 mg) was 0 n (%), the Limb injury (Safety (TEAEs), JACKPOT3; 50 mg) was 0 n (%) and the “Metabolism and nutrition disorders” value (Safety (TEAEs), JACKPOT3; 50 mg) was 1 (16.7%) n (%). The “Musculoskeletal and connective tissue disorders” value (Safety (TEAEs), JACKPOT3; 50 mg) was 0 n (%), the Musculoskeletal pain (Safety (TEAEs), JACKPOT3; 50 mg) was 0 n (%) and the Musculoskeletal stiffness (Safety (TEAEs), JACKPOT3; 50 mg) was 0 n (%). The Neutrophil count decreased (Safety (TEAEs), JACKPOT3; 50 mg) was 0 n (%), the Productive cough (Safety (TEAEs), JACKPOT3; 50 mg) was 0 n (%) and the “Respiratory, Thoracic and Mediastinal Disorders” value (Safety (TEAEs), JACKPOT3; 50 mg) was 0 n (%). For the same compound, the Rhinorrhea (Safety (TEAEs), JACKPOT3; 50 mg) was 0 n (%), the “Subjects with at least one TEAE” value (Safety (TEAEs), JACKPOT3; 50 mg) was 3 (50.0%) n (%) and the Wound (Safety (TEAEs), JACKPOT3; 50 mg) was 0 n (%). For the same compound, the ALT Increased (Safety (TEAEs), JACKPOT3; 100 mg) was 1 (16.7%) n (%), the AST Increased (Safety (TEAEs), JACKPOT3; 100 mg) was 0 n (%) and the Abdominal discomfort (Safety (TEAEs), JACKPOT3; 100 mg) was 0 n (%). For the same compound, the “Blood and Lymphatic System Disorders” value (Safety (TEAEs), JACKPOT3; 100 mg) was 0 n (%), the Blood bilirubin increased (Safety (TEAEs), JACKPOT3; 100 mg) was 0 n (%) and the Blood cholesterol increased (Safety (TEAEs), JACKPOT3; 100 mg) was 0 n (%). The C-reactive protein increased (Safety (TEAEs), JACKPOT3; 100 mg) was 1 (16.7%) n (%), the Diarrhea (Safety (TEAEs), JACKPOT3; 100 mg) was 0 n (%) and the “ECG QT prolonged” value (Safety (TEAEs), JACKPOT3; 100 mg) was 0 n (%). The Epistaxis (Safety (TEAEs), JACKPOT3; 100 mg) was 1 (16.7%) n (%), the Gastrointestinal disorders (Safety (TEAEs), JACKPOT3; 100 mg) was 0 n (%) and the Glucose urine present (Safety (TEAEs), JACKPOT3; 100 mg) was 0 n (%). For the same compound, the Hemoglobin decreased (Safety (TEAEs), JACKPOT3; 100 mg) was 0 n (%), the Hypertriglyceridemia (Safety (TEAEs), JACKPOT3; 100 mg) was 2 (33.3%) n (%) and the “Injury, poisoning and procedural complications” value (Safety (TEAEs), JACKPOT3; 100 mg) was 0 n (%). The Investigations (Safety (TEAEs), JACKPOT3; 100 mg) was 2 (33.3%) n (%), the LDH increased (Safety (TEAEs), JACKPOT3; 100 mg) was 0 n (%) and the LDL increased (Safety (TEAEs), JACKPOT3; 100 mg) was 0 n (%). The Leukocytosis (Safety (TEAEs), JACKPOT3; 100 mg) was 0 n (%), the Limb injury (Safety (TEAEs), JACKPOT3; 100 mg) was 0 n (%) and the “Metabolism and nutrition disorders” value (Safety (TEAEs), JACKPOT3; 100 mg) was 2 (33.3%) n (%). For the same compound, the “Musculoskeletal and connective tissue disorders” value (Safety (TEAEs), JACKPOT3; 100 mg) was 1 (16.7%) n (%), the Musculoskeletal pain (Safety (TEAEs), JACKPOT3; 100 mg) was 0 n (%) and the Musculoskeletal stiffness (Safety (TEAEs), JACKPOT3; 100 mg) was 1 (16.7%) n (%). The Neutrophil count decreased (Safety (TEAEs), JACKPOT3; 100 mg) was 0 n (%), the Productive cough (Safety (TEAEs), JACKPOT3; 100 mg) was 0 n (%) and the “Respiratory, Thoracic and Mediastinal Disorders” value (Safety (TEAEs), JACKPOT3; 100 mg) was 1 (16.7%) n (%). The Rhinorrhea (Safety (TEAEs), JACKPOT3; 100 mg) was 0 n (%), the “Subjects with at least one TEAE” value (Safety (TEAEs), JACKPOT3; 100 mg) was 4 (66.7%) n (%) and the Wound (Safety (TEAEs), JACKPOT3; 100 mg) was 0 n (%). The ALT Increased (Safety (TEAEs), JACKPOT3; 150 mg) was 0 n (%), the AST Increased (Safety (TEAEs), JACKPOT3; 150 mg) was 0 n (%) and the Abdominal discomfort (Safety (TEAEs), JACKPOT3; 150 mg) was 0 n (%). For the same compound, the “Blood and Lymphatic System Disorders” value (Safety (TEAEs), JACKPOT3; 150 mg) was 0 n (%), the Blood bilirubin increased (Safety (TEAEs), JACKPOT3; 150 mg) was 2 (33.3%) n (%) and the Blood cholesterol increased (Safety (TEAEs), JACKPOT3; 150 mg) was 1 (16.7%) n (%). The C-reactive protein increased (Safety (TEAEs), JACKPOT3; 150 mg) was 1 (16.7%) n (%), the Diarrhea (Safety (TEAEs), JACKPOT3; 150 mg) was 1 (16.7%) n (%) and the “ECG QT prolonged” value (Safety (TEAEs), JACKPOT3; 150 mg) was 1 (16.7%) n (%). For the same compound, the Epistaxis (Safety (TEAEs), JACKPOT3; 150 mg) was 0 n (%), the Gastrointestinal disorders (Safety (TEAEs), JACKPOT3; 150 mg) was 1 (16.7%) n (%) and the Glucose urine present (Safety (TEAEs), JACKPOT3; 150 mg) was 1 (16.7%) n (%). The Hemoglobin decreased (Safety (TEAEs), JACKPOT3; 150 mg) was 1 (16.7%) n (%), the Hypertriglyceridemia (Safety (TEAEs), JACKPOT3; 150 mg) was 2 (33.3%) n (%) and the “Injury, poisoning and procedural complications” value (Safety (TEAEs), JACKPOT3; 150 mg) was 1 (16.7%) n (%). The Investigations (Safety (TEAEs), JACKPOT3; 150 mg) was 4 (66.7%) n (%), the LDH increased (Safety (TEAEs), JACKPOT3; 150 mg) was 0 n (%) and the LDL increased (Safety (TEAEs), JACKPOT3; 150 mg) was 1 (16.7%) n (%). For the same compound, the Leukocytosis (Safety (TEAEs), JACKPOT3; 150 mg) was 0 n (%), the Limb injury (Safety (TEAEs), JACKPOT3; 150 mg) was 0 n (%) and the “Metabolism and nutrition disorders” value (Safety (TEAEs), JACKPOT3; 150 mg) was 2 (33.3%) n (%). For the same compound, the “Musculoskeletal and connective tissue disorders” value (Safety (TEAEs), JACKPOT3; 150 mg) was 1 (16.7%) n (%), the Musculoskeletal pain (Safety (TEAEs), JACKPOT3; 150 mg) was 1 (16.7%) n (%) and the Musculoskeletal stiffness (Safety (TEAEs), JACKPOT3; 150 mg) was 0 n (%). For the same compound, the Neutrophil count decreased (Safety (TEAEs), JACKPOT3; 150 mg) was 2 (33.3%) n (%), the Productive cough (Safety (TEAEs), JACKPOT3; 150 mg) was 0 n (%) and the “Respiratory, Thoracic and Mediastinal Disorders” value (Safety (TEAEs), JACKPOT3; 150 mg) was 1 (16.7%) n (%). The Rhinorrhea (Safety (TEAEs), JACKPOT3; 150 mg) was 1 (16.7%) n (%), the “Subjects with at least one TEAE” value (Safety (TEAEs), JACKPOT3; 150 mg) was 6 (100%) n (%) and the Wound (Safety (TEAEs), JACKPOT3; 150 mg) was 1 (16.7%) n (%). For the same compound, the “selectivity to JAK1 over other JAK family kinases” value (JAK1) was “greater than 200 folds”.
